Key:
subjects with diabetes = assay: Example 1/2: multicenter double-blind placebo-controlled 96 week trial, seated office blood pressure and blood-pressure TEAEs; format: in vivo, human
Experimental: In a multicenter double-blind placebo-controlled trial, subjects with diabetes were administered Compound 1, 20 mg per day or placebo for 96 weeks. The blood pressure of resting seated subjects was measured at every office visit. Although the study population was not specifically recruited to contain participants with hypertension, a fraction of the population was affected by the disease and the mean baseline systolic blood pressure of the entire study population was 127 mm Hg. The effects of Compound 1 and placebo on systolic and diastolic blood pressure as a function of time are shown in FIG. 5 (systolic) and FIG. 6 (diastolic).
A treatment emergent adverse event (TEAE) is an adverse event that develops during or immediately following the period of exposure to the investigational product in a clinical trial. An adverse event is any event that represents an unfavorable change in the health of the individual that is clinically significant—it may represent a new condition or status or materially worsened pre-existing condition. In the clinical trial of Example 1, hypertension was recorded as a TEAE in 2 subjects that had been administered Compound 1 and in 5 subjects administered placebo. […] One episode of hypotension was observed among subjects administered Compound 1 and none among subjects administered placebo. The lower incidence of hypertensive TEAEs and the single episode of hypotension are consistent with the antihypertensive effect of Compound 1. In addition, the observation of only a single episode of hypotension is notable because the mean systolic blood pressure at baseline was only 127 mm Hg, well below the 140 mm Hg level that demarks a widely adopted standard for the diagnosis of hypertension.

[1] = test system: spontaneously hypertensive rat, stroke prone strain (SHRSP); details: previously reported (Zhang 2011); cited from earlier work
[2] = test system: subjects with seated office systolic blood pressure of ≥140 mm Hg and <180 mm Hg; assay: Study THR-1442-C-603A: double-blind placebo-controlled 12 week trial in a hypertensive population not pre-selected for diabetes; format: in vivo, human
Experimental: A qualified ABPM record contained no fewer than 64 measurements over an approximately 24 h period and a mean SBP≥135 mm Hg.
A total of 678 subjects were randomly assigned to the active arm or to the placebo arm.
The study was conducted in the United States at multiple clinical sites. The randomized population consisted of 409 male and 269 female participants with a mean age ±standard deviation of 58.5±11.74. […] 64.7% were self-declared Caucasian, 29.9% African-American, 1.6% Asian, 0.3% Native American/Native Alaskan, 0.1% Native Hawaiian/Other Pacific Islander, 1.0% Multiracial and 2.2% Other. 8.1% self-declared Hispanic or Latino ethnicity. The study population was obese, having a median body mass index (kg m^−2) of 31.9 and a mean weight of 98.3±35.0 kg. A history of diagnosed diabetes was elicited from 24.3% of the subjects and 18.0% were presently unmedicated for hypertension.
The baseline 24 h average SBP from ABPM was 147.3±9.93 and the DBP was 84.5±9.65. 11.7% of the subjects produced a baseline ABPM SBP≥160 mm Hg.
Following self-administration of investigational product for 12 weeks, subjects underwent ABPM to assess the potential treatment effect. After the first 300 subjects had completed 12 weeks of participation, the mean SBP was 140.90, corresponding to a decrease from baseline in the entire population of 6.4 mm Hg.
A total of 678 subjects were randomized, of whom 5 were excluded for major protocol violations. Of the remaining 673 participants, 307 out of 334 in the bexagliflozin arm and 319 out of 339 in the placebo arm completed the study. The arms were well-balanced in general by demographic characteristics. The population was predominantly male (60.5%) and Caucasian (65.2%) with the remainder by race predominantly of African heritage (29.4%). Participants of Latino ethnicity comprised 8.0% of the total. The mean age was 58.9 years and 24.8% were diabetic. The mean subject was obese with a BMI of 32.6 kg/m^2, and 81% reported at least one prescription for anti-hypertensive medication. ACE inhibitors and ARBs were the most commonly encountered agents. Calcium channel blockers, diuretics and β-blockers were the next most commonly encountered, in that order. The mean seated office blood pressure was 156/91 with a heart rate of 73. The mean ABPM at baseline was 147.5/85.0. Nearly all participants had preserved renal function.

[3] = subjects with systolic blood pressure of 140 mm Hg or above at study entry, 20 mg per day, persisted for duration of trial

OC[C@H]1O[C@@H](c2ccc(Cl)c(Cc3ccc(OCCOC4CC4)cc3)c2)[C@H](O)[C@@H](O)[C@@H]1O [Compound 1, (2S,3R,4R,5S,6R)-2-(4-chloro-3-(4-(2-cyclopropoxyethoxy)benzyl)phenyl)-6-(hydroxymethyl)tetrahydro-2H-pyran-3,4,5-triol]
episodes of hypotension (subjects with diabetes; 20 mg per day, 96 weeks): One
hypertension recorded as a TEAE (subjects with diabetes; 20 mg per day, 96 weeks): 2 subjects
hypertensive crisis (subjects with diabetes; 20 mg per day, 96 weeks): 0 subjects
propensity for producing deleterious reductions in blood pressure (subjects with diabetes; mean systolic blood pressure at baseline 127 mm Hg): favorably low propensity
reduction in diastolic blood pressure (subjects with diabetes; [3]): approximately 7 mm Hg
reduction in systolic blood pressure (subjects with diabetes; [3]): approximately 12 mm Hg
effect in SHRSP rat [1]: protective effects
proportion of subjects achieving a seated office DBP≤90 mm Hg ([2]; 20 mg tablets, 12 weeks): 0.65
proportion of subjects achieving a seated office SBP≤140 mm Hg ([2]; 20 mg tablets, 12 weeks): 0.38
placebo-adjusted change in seated office SBP from baseline ([2]; 20 mg tablets, 12 weeks, 95% confidence interval −6.83, −2.42, p<0.0001): −4.63 mm Hg
placebo-adjusted change in seated office DBP from baseline ([2]; 20 mg tablets, week 12, 95% CI −3.70, −0.91, p=0.0011): −2.31 mm Hg
anti-hypertensive effect over the 24 h ABPM data collection period (hourly change in blood pressure) ([2]; ABPM): did not show significant waning
placebo-adjusted reduction in ambulatory mean SBP from baseline to week 12 ([2]; ABPM, p=0.0025): 2.72 mm Hg
adverse events by percentage among participants ([2]; active arm, 12 weeks): 41.9%
adverse events leading to subject withdrawal or treatment discontinuation ([2]; active arm, 12 weeks): 1.8%
serious adverse events ([2]; active versus placebo arm): balanced between the arms
treatment effect by ABPM SBP measurement ([2]; subgroup: concomitant diuretic use, p=0.0021): −5.60 mm Hg
treatment effect by ABPM SBP measurement ([2]; subgroup: concomitant β-blocker use, p=0.0012): −6.26 mm Hg
treatment effect by ABPM SBP measurement ([2]; subgroup: history of diabetes, p=0.0023): −6.07 mm Hg
treatment effect by ABPM SBP measurement ([2]; subgroup: participants with stage 3 CKD, p=0.0571): −7.53 mm Hg
treatment effect by ABPM SBP measurement ([2]; subgroup: use of 3 or more anti-hypertensive medications, p=0.0071): −5.55 mm Hg
odds ratio for achieving seated office DBP≤90 mm Hg ([2]; versus placebo arm, 95% CI 1.13, 2.35, p=0.0094): 1.63
odds ratio for achieving seated office SBP≤140 mm Hg ([2]; versus placebo arm, 95% CI 1.32, 2.62, p=0.0004): 1.86
